The values below come from ChEMBL document CHEMBL1201862, “PubChem BioAssay data set” (2004).

The structures appear in SMILES notation.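 Tested at 5 concentrations; 48 h exposure; 96-well plates; endpoints linearly interpolated, else capped at highest concentration. GI50: concentration for 50% inhibition of growth.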 Calls of active or inactive are those of the source. Rule as the data show it: active = GI50 up to about 1.1 µM and inactive = higher.

Test systems include MOLT-4; HOP-92; SNB-75; HCT-15; OVCAR-3; SN12C; RXF 393; UACC-257; KM12; SF-295; SF-268; HT-29; NCI-H460; SF-539; SNB-19; OVCAR-4; SK-MEL-2; NCI-H23; K562; A549.
Common to all, as to assay: NCI-60 cell line screen, 48 h

Regarding `COc1ccc(Cc2nn(C3OC(COC(C)=O)C(OC(C)=O)C(OC(C)=O)C3OC(C)=O)c(=S)n(-c3ccc(OC)cc3)c2=O)cc1` (stereo not given), the GI50 is > 100 µM (inactive) with MOLT-4; > 87.5 µM (inactive) in the assay on HOP-92; 43.5 µM (inactive) with SNB-75; greater than 100 µM with HCT-15; > 100 µM (inactive) in the assay with OVCAR-3; > 100 µM (inactive) in the assay on SN12C. The GI50 in the assay with RXF 393, in the assay with UACC-257, in the assay with KM12, in the assay with SF-295, with SF-268 and in the assay on HT-29 was > 100 µM (inactive) each time. Moreover, the GI50 in the assay on NCI-H460, with SF-539, in the assay on SNB-19, in the assay with OVCAR-4, with SK-MEL-2 and in the assay on NCI-H23 was > 100 µM (inactive) throughout. Besides, the GI50 in the assay on K562 and in the assay with A549 was > 100 µM (inactive) in each case.
Turning to `O=C1C(Br)=CC2([N+](=O)[O-])CCNC3=C(C4=NCCc5c[nH]c(c54)C3=O)C2=C1Br` (stereo not given), the GI50 with MOLT-4 is 1.14 µM (inactive); in the assay with HOP-92, 0.811 µM (active); in the assay on SNB-75 it was 8.39 µM (inactive); in the assay with HCT-15 it was 0.796 µM; in the assay on OVCAR-3 it was 0.0546 µM (active); with SN12C, 1.78 µM (inactive). Also, the GI50 in the assay with RXF 393 is 2.39 µM (inactive); in the assay with UACC-257, 0.279 µM (active); in the assay on KM12, 3.96 µM (inactive); in the assay with SF-295, 1.91 µM (inactive); in the assay with SF-268, 2.26 µM (inactive); in the assay with HT-29, 0.553 µM (active). Further, the GI50 was 3.39 µM (inactive) in the assay with NCI-H460; 2.11 µM (inactive) in the assay on SF-539; 2.81 µM (inactive) with SNB-19; 1.76 µM (inactive) in the assay with OVCAR-4; 1.65 µM (inactive) in the assay on SK-MEL-2; 1.39 µM (inactive) with NCI-H23. The GI50 in the assay with K562 was 0.424 µM (active); with A549, 3 µM (inactive).
Consider `COC(=O)c1cccc(N[C@@H]2c3cc4c(cc3C(c3cc(OC)c(O)c(OC)c3)[C@H]3C(=O)OCC32)OCO4)c1` (stereo not given in full), for which the GI50 in the assay on MOLT-4 was 0.0328 µM (active); in the assay with HOP-92, 1.06 µM (active); in the assay with SNB-75 it was 1.87 µM (inactive); in the assay on HCT-15 it was 1.08 µM; with OVCAR-3, 2.07 µM (inactive); with SN12C, 1.45 µM (inactive). Also, the GI50 in the assay with RXF 393 is 1.33 µM (inactive); in the assay with UACC-257, 0.659 µM (active); in the assay on KM12, 2.37 µM (inactive); in the assay on SF-295 it was 0.543 µM (active); in the assay with SF-268 it was 1.4 µM (inactive); in the assay on HT-29, 1.69 µM (inactive). Besides, the GI50 in the assay with NCI-H460 is 0.0351 µM (active); in the assay with SF-539 it was 0.528 µM (active); in the assay on SNB-19, 0.755 µM (active); with OVCAR-4, 7.08 µM (inactive); in the assay with SK-MEL-2 it was 4.69 µM (inactive); in the assay on NCI-H23, 0.63 µM (active). Besides, the GI50 in the assay on K562 is 0.902 µM (active); in the assay with A549, 0.153 µM (active).
`NC(C/C=C/P(=O)(O)O)C(=O)O` (stereo not given): the GI50 in the assay with MOLT-4 is > 100 µM (inactive); in the assay with HOP-92 it was > 100 µM (inactive); in the assay on SNB-75, 14.1 µM (inactive); in the assay with HCT-15, greater than 100 µM; with OVCAR-3 it was > 100 µM (inactive); in the assay with SN12C it was > 100 µM (inactive). The GI50 in the assay on RXF 393 was > 100 µM (inactive); with UACC-257, > 100 µM (inactive); with KM12 it was > 100 µM (inactive); in the assay with SF-295, > 100 µM (inactive); in the assay on SF-268, 58.1 µM (inactive); with HT-29, > 100 µM (inactive). In addition, the GI50 with NCI-H460, in the assay on SF-539, in the assay on SNB-19, in the assay with OVCAR-4, in the assay on SK-MEL-2 and in the assay on NCI-H23 was > 100 µM (inactive) each time. Further, the GI50 with K562 and in the assay with A549 was > 100 µM (inactive) each time.
In the case of `CC(C)[C@](O)(C(=O)OCC1=CCN2CC[C@@H](O)[C@@H]12)[C@H](C)O`, the GI50 with MOLT-4 is > 375 µM (inactive); with HOP-92, > 375 µM (inactive); in the assay with SNB-75 it was > 375 µM (inactive); with HCT-15 it was greater than 375 µM; in the assay on OVCAR-3, > 375 µM (inactive); in the assay on SN12C, > 375 µM (inactive). Moreover, the GI50 with RXF 393, in the assay with UACC-257, in the assay on KM12, with SF-295, in the assay with SF-268 and in the assay on HT-29 was > 375 µM (inactive) throughout. The GI50 is > 367 µM (inactive) in the assay on NCI-H460; > 375 µM (inactive) with SF-539; > 375 µM (inactive) with SNB-19; > 375 µM (inactive) in the assay on OVCAR-4; > 375 µM (inactive) in the assay on SK-MEL-2; > 375 µM (inactive) in the assay with NCI-H23. The GI50 with K562 and in the assay with A549 was > 375 µM (inactive) each time.
